Source: ChEMBL document CHEMBL3872244, “Synthesis, evaluation and molecular modelling studies of 2-(carbazol-3-yl)-2-oxoacetamide analogues as a new class of potential pancreatic lipase inhibitors” (Bioorg Med Chem, 2017)
Each block holds one molecule with its values, some of them ahead of it. Activity calls are given as the source filed them. No cut-off for these calls is given here.

Legend:
[1] = target: T1, Pancreatic triacylglycerol lipase (Sus scrofa, UniProt P00591); assay: Inhibition of porcine pancreatic lipase assessed as reduction in 4-nitrophenol formation from 4-nitrophenyl butyrate substrate preincubated for 30 mins followed by substrate addition measured after 5 mins by spectrophotometer
T1 sequence (P00591 whole entry): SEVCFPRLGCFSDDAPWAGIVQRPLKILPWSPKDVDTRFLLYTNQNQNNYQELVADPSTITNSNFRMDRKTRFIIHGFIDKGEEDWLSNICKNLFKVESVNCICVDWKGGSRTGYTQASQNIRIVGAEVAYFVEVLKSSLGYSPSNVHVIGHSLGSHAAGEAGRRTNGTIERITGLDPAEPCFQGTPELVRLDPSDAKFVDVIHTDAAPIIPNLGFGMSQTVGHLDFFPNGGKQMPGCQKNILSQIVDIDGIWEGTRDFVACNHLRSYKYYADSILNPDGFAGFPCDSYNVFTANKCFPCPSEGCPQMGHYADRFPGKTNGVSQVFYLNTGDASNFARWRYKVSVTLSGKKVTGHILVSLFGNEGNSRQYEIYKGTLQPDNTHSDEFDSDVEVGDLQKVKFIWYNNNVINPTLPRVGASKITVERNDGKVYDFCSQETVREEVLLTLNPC

[2] = target: T1, Pancreatic triacylglycerol lipase; assay: Competitive inhibition of porcine pancreatic lipase 4-nitrophenyl butyrate substrate preincubated for 30 mins followed by substrate addition measured after 5 mins by Dixon plot method
[3] = target: T2, Pancreatic triacylglycerol lipase (Sus scrofa) (UniProt P00591); assay: Inhibition of porcine pancreatic lipase using tributyrin as substrate preincubated for 30 mins measured at 1 min time interval for 5 mins in presence of NaTDC in reaction mixture by pH-Stat method
T2 sequence (whole entry): T1 sequence (P00591 whole entry)

[4] = target: T2, Pancreatic triacylglycerol lipase (Sus scrofa); assay: Inhibition of porcine pancreatic lipase using tributyrin as substrate incubated for 30 mins measured at 1 min time interval for 5 mins in presence of NaTDC in incubation medium by pH-Stat method
[5] = target: T3, Pancreatic triacylglycerol lipase (Homo sapiens, UniProt P16233); assay: Inhibition of pancreatic lipase (unknown origin)
T3 sequence (P16233 whole entry): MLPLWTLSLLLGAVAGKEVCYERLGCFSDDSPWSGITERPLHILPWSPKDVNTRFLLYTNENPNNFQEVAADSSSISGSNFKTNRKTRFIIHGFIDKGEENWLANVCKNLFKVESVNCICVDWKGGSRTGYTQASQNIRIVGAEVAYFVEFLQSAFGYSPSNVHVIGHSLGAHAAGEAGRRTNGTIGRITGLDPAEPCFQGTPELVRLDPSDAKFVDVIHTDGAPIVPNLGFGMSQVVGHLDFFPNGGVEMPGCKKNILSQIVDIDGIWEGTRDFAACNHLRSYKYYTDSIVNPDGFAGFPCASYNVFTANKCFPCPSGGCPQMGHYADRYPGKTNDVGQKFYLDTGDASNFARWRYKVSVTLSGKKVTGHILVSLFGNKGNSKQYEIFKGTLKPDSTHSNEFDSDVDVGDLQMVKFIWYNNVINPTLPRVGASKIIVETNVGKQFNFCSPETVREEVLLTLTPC

[6] = compound: CCCCCCCCCCC[C@@H](C[C@@H]1OC(=O)[C@H]1CCCCCC)OC(=O)[C@H](CC(C)C)NC=O; assay: (§1) Competitive inhibition of porcine pancreatic lipase assessed as enzyme Km at 5 uM in presence of varying levels of 4-nitophenyl butyrate by Lineweaver-burk plot method; details: Sus scrofa
[7] = compound: COc1cc(NC(=O)C(=O)c2ccc3[nH]c4ccccc4c3c2)cc(OC)c1OC; assay: as §1; details: Sus scrofa
[8] = compound: COc1cc(NC(=O)C(=O)c2ccc3c(c2)c2ccccc2n3Cc2ccc(Cl)cc2)cc(OC)c1OC; assay: as §1; details: Sus scrofa
[9] = compound: COc1ccc(NC(=O)C(=O)c2ccc3c(c2)c2ccccc2n3Cc2ccc(Cl)cc2)cc1OC; assay: as §1; details: Sus scrofa
[10] = compound: CCCCCCCCCCC[C@@H](C[C@@H]1OC(=O)[C@H]1CCCCCC)OC(=O)[C@H](CC(C)C)NC=O; assay: (§2) Competitive inhibition of porcine pancreatic lipase assessed as enzyme Km at 10 uM in presence of varying levels of 4-nitophenyl butyrate by Lineweaver-burk plot method; details: Sus scrofa
[11] = compound: COc1cc(NC(=O)C(=O)c2ccc3[nH]c4ccccc4c3c2)cc(OC)c1OC; assay: as §2; details: Sus scrofa
[12] = compound: COc1cc(NC(=O)C(=O)c2ccc3c(c2)c2ccccc2n3Cc2ccc(Cl)cc2)cc(OC)c1OC; assay: as §2; details: Sus scrofa
[13] = compound: COc1ccc(NC(=O)C(=O)c2ccc3c(c2)c2ccccc2n3Cc2ccc(Cl)cc2)cc1OC; assay: as §2; details: Sus scrofa
[14] = compound: CCCCCCCCCCC[C@@H](C[C@@H]1OC(=O)[C@H]1CCCCCC)OC(=O)[C@H](CC(C)C)NC=O; assay: (§3) Competitive inhibition of porcine pancreatic lipase assessed as enzyme Km at 20 uM in presence of varying levels of 4-nitophenyl butyrate by Lineweaver-burk plot method; details: Sus scrofa
[15] = compound: COc1cc(NC(=O)C(=O)c2ccc3[nH]c4ccccc4c3c2)cc(OC)c1OC; assay: as §3; details: Sus scrofa
[16] = compound: COc1cc(NC(=O)C(=O)c2ccc3c(c2)c2ccccc2n3Cc2ccc(Cl)cc2)cc(OC)c1OC; assay: as §3; details: Sus scrofa
[17] = compound: COc1ccc(NC(=O)C(=O)c2ccc3c(c2)c2ccccc2n3Cc2ccc(Cl)cc2)cc1OC; assay: as §3; details: Sus scrofa
[18] = compound: CCCCCCCCCCC[C@@H](C[C@@H]1OC(=O)[C@H]1CCCCCC)OC(=O)[C@H](CC(C)C)NC=O; assay: (§4) Competitive inhibition of porcine pancreatic lipase assessed as enzyme Vmax in presence of varying levels of 4-nitophenyl butyrate by Lineweaver-burk plot method; details: Sus scrofa
[19] = compound: COc1cc(NC(=O)C(=O)c2ccc3[nH]c4ccccc4c3c2)cc(OC)c1OC; assay: as §4; details: Sus scrofa
[20] = compound: COc1cc(NC(=O)C(=O)c2ccc3c(c2)c2ccccc2n3Cc2ccc(Cl)cc2)cc(OC)c1OC; assay: as §4; details: Sus scrofa
[21] = compound: COc1ccc(NC(=O)C(=O)c2ccc3c(c2)c2ccccc2n3Cc2ccc(Cl)cc2)cc1OC; assay: as §4; details: Sus scrofa

Molecule: COc1cccc(NC(=O)C(=O)c2ccc3c(c2)c2ccccc2n3Cc2ccc(Cl)cc2)c1
IC50 [1]: 26.6 µM

Molecule: COc1cccc(NC(=O)C(=O)c2ccc3[nH]c4ccccc4c3c2)c1
IC50 [1]: 33 µM

Molecule: O=C(Nc1ccncc1)C(=O)c1ccc2c(c1)c1ccccc1n2Cc1ccc(Cl)cc1
IC50 [1]: 19.9 µM

Molecule: CCn1c2ccccc2c2cc(C(=O)C(=O)Nc3ccccc3)ccc21
IC50 [1]: 24.2 µM

Molecule: Cc1cnc(NC(=O)C(=O)c2ccc3c(c2)c2ccccc2n3Cc2ccc(Cl)cc2)s1
IC50 [1]: 32.8 µM

Molecule: COc1ccc(NC(=O)C(=O)c2ccc3[nH]c4ccccc4c3c2)cc1OC
IC50 [1]: 44.1 µM

Molecule: O=C(Nc1ccc2ncccc2c1)C(=O)c1ccc2c(c1)c1ccccc1n2Cc1ccc(Cl)cc1
IC50 [1]: 23 µM

Molecule: CCn1c2ccccc2c2cc(C(=O)C(=O)Nc3ccc(N(C)C)cc3)ccc21
IC50 [1]: 56.2 µM

Molecule: O=C(Nc1ccccc1)C(=O)c1ccc2[nH]c3ccccc3c2c1
IC50 [1]: 29.7 µM

Molecule: COc1ccc(NC(=O)C(=O)c2ccc3[nH]c4ccccc4c3c2)cc1
IC50 [1]: 19.3 µM

Molecule: COc1ccc2[nH]c3c4c(c(C)cc3c2c1)OC(C)(C)C=C4 [KOENIMBINE]
IC50 [5]: 169 µM

Molecule: O=C(Nc1ccc(F)cc1)C(=O)c1ccc2c(c1)c1ccccc1n2Cc1ccc(Cl)cc1
IC50 [1]: 28 µM

Molecule: Cn1c2ccccc2c2cc(C(=O)C(=O)Nc3ccccc3)ccc21
IC50 [1]: 36.2 µM

Molecule: O=C(Nc1ccncc1)C(=O)c1ccc2[nH]c3ccccc3c2c1
IC50 [1]: 29.4 µM

Molecule: COc1cc2[nH]c3c4c(c(C)cc3c2cc1OC)OC(C)(C)C=C4
IC50 [5]: 429 µM

Molecule: COc1cc(NC(=O)C(=O)c2ccc3c(c2)c2ccccc2n3C)cc(OC)c1OC
IC50 [1]: 23.1 µM

Molecule: CC(C)=CCCC1(C)C=Cc2c(c(C)cc3c2[nH]c2ccccc23)O1 (stereo not drawn) [MAHANIMBINE]
IC50 [5]: 17.9 µM

Molecule: CCCCCCCCCCC[C@@H](C[C@@H]1OC(=O)[C@H]1CCCCCC)OC(=O)[C@H](CC(C)C)NC=O
XI50 [3]: 3.14

B1: Pancreatic triacylglycerol lipase (Sus scrofa), P00591 (protein)
chain: T1 sequence (P00591 whole entry)
Km [6]: 197 µM
Km [7]: 123 µM
Km [8]: 126 µM
Km [9]: 129 µM
Km [10]: 228 µM
Km [11]: 151 µM
Km [12]: 152 µM
Km [13]: 156 µM
Km [14]: 253 µM
Km [15]: 163 µM
Km [16]: 165 µM
Km [17]: 179 µM
Vmax [18]: 15.2 µM/min
Vmax [19]: 15 µM/min
Vmax [20]: 15.5 µM/min
Vmax [21]: 15.2 µM/min

Now from value to molecule:

IC50 [1]: 11.4 µM
Molecule: CCn1c2ccccc2c2cc(C(=O)C(=O)Nc3cc(OC)c(OC)c(OC)c3)ccc21

IC50 [1]: 13.9 µM
Molecule: O=C(Nc1ccccc1)C(=O)c1ccc2c(c1)c1ccccc1n2Cc1ccc(Cl)cc1

IC50 [1]: 9.58 µM
Ki [2]: 21.6 µM
XI50 [3]: 26.2
inhibition [4]: Active
Molecule: COc1cc(NC(=O)C(=O)c2ccc3[nH]c4ccccc4c3c2)cc(OC)c1OC

IC50 [1]: 13.5 µM
Molecule: Cc1ccc(NC(=O)C(=O)c2ccc3c(c2)c2ccccc2n3Cc2ccc(Cl)cc2)cc1

IC50 [1]: 8.72 µM
Ki [2]: 19.6 µM
XI50 [3]: 21.9
inhibition [4]: Active
Molecule: COc1cc(NC(=O)C(=O)c2ccc3c(c2)c2ccccc2n3Cc2ccc(Cl)cc2)cc(OC)c1OC

IC50 [1]: 6.31 µM
Ki [2]: 17.5 µM
XI50 [3]: 21.9
inhibition [4]: Active
Molecule: COc1ccc(NC(=O)C(=O)c2ccc3c(c2)c2ccccc2n3Cc2ccc(Cl)cc2)cc1OC

IC50 [1]: 16.4 µM
Molecule: CCn1c2ccccc2c2cc(C(=O)C(=O)Nc3ccc(OC)c(OC)c3)ccc21

IC50 [1]: 14.8 µM
Molecule: CN(C)c1ccc(NC(=O)C(=O)c2ccc3c(c2)c2ccccc2n3Cc2ccc(Cl)cc2)cc1

IC50 [1]: 15.5 µM
Molecule: CCn1c2ccccc2c2cc(C(=O)C(=O)Nc3ccc4ncccc4c3)ccc21

IC50 [1]: 14.8 µM
Molecule: COc1ccc(NC(=O)C(=O)c2ccc3c(c2)c2ccccc2n3Cc2ccc(Cl)cc2)cc1
